Values joined by “and” are separate entries in the source; they are usually repeats but may differ in a detail not shown here. Identical values can stand only once.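 Test compounds were applied to cells in 96-well plates for 48 hours at 5 doses. Abbreviation: GI50, concentration required for 50% inhibition of growth. TGI is the concentration that stops growth completely.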
Experiments:
Assay in all cases: growth of human tumour cells (NCI), 48 h
SK-OV-3 ovarian = test system: SK-OV-3 ovarian
HCT-116 colon = test system: HCT-116 colon
HCT-15 colon = test system: HCT-15 colon
OVCAR-8 ovarian = test system: OVCAR-8 ovarian
A498 renal = test system: A498 renal
RPMI-8226 leukemia = test system: RPMI-8226 leukemia
SF-268 CNS = test system: SF-268 CNS
A549 NSCLC = test system: A549 NSCLC
MALME-3M melanoma = test system: MALME-3M melanoma
UACC-257 melanoma = test system: UACC-257 melanoma

Row | SMILES | GI50 (SK-OV-3 ovarian) [µM] | TGI (SK-OV-3 ovarian) [µM] | GI50 (HCT-116 colon) | TGI (HCT-116 colon) [µM] | GI50 (HCT-15 colon) | TGI (HCT-15 colon) [µM] | GI50 (OVCAR-8 ovarian) [µM] | TGI (OVCAR-8 ovarian) [µM] | GI50 (A498 renal) [µM] | TGI (A498 renal) [µM] | GI50 (RPMI-8226 leukemia) [µM] | TGI (RPMI-8226 leukemia) [µM] | GI50 (SF-268 CNS) [µM] | TGI (SF-268 CNS) [µM] | GI50 (A549 NSCLC) | TGI (A549 NSCLC) [µM] | GI50 (MALME-3M melanoma) [µM] | TGI (MALME-3M melanoma) [µM] | TGI (UACC-257 melanoma) [µM] | GI50 (UACC-257 melanoma) [µM]
1 | CC1=C([Se]CC(OC(=O)[C@@H](CO)NC(=O)OC(C)(C)C)C(=O)NCCCCCC(=O)OCc2ccccc2)C(=O)c2ccccc2C1=O (stereo partly drawn) | 1.28 | 2.56 | 1.39 µM | 2.73 | 1.93 µM | 3.77 | 1.84 | 3.36 | 2.02 | 5.93 | 2.18 | 5.83 | 1.85 | 3.27 | 1.37 µM | 3.07 | 2.07 | 3.82 |  | 
2 | COC(=O)/C(=N\NC(N)=O)C(C(=O)C=C(C)C)C(=O)C(=O)Nc1ccc(Cl)c(Cl)c1 (stereo not drawn) |  | > 100 |  | > 100 |  | > 100 |  | > 100 |  | > 100 |  |  |  | > 100 |  | > 100 |  | > 100 | > 100 | 
3 | COc1ccc2nc(NC(=O)C(=O)NNC(=O)c3ccncc3)sc2c1 |  | > 100 |  | > 100 |  | > 100 |  | > 100 |  | > 100 |  |  |  | > 100 |  | > 100 |  | > 100 | > 100 | 
4 | CC(C)C1N2CCCCC2[C@@H]2c3[nH]c4ccccc4c3CCN12 (stereo partly drawn) |  | > 100 |  | > 100 |  | > 100 |  | > 100 |  | > 100 |  | > 100 |  | > 100 |  | > 100 |  |  | > 100 | 
5 | Fc1ccc(Nc2nc3ccccc3c3occc23)cc1 | 5.16 | 18.4 | 0.13 µM | 2.41 | 9.58 µM | 21.4 | 11.2 | 31.5 |  |  | 3.56 | 15 | 7.54 | 24.1 | 8.99 µM | 23.2 |  |  | 28.3 | 13.8
6 | CN1CCN(Cc2cc(NC(=O)c3cccc(C#Cc4cccc5[nH]nc(N)c45)c3)cc(C(F)(F)F)c2)CC1 | 1.94 | 3.54 |  |  | 1.81 µM | 3.37 | 1.85 | 3.62 | 1.01 | 2.22 | 2.12 | 4.62 | 1.53 | 3.15 | 1.83 µM | 3.28 | 1.23 | 2.69 | 3.39 | 1.83
7 | CCCCCCCCCCCCCB(O)O |  | > 100 | > 100 µM and 47.8 µM | > 100 | > 100 µM and 49.3 µM | > 100 |  | > 100 |  | > 100 |  |  |  | > 100 | > 100 µM and 48.5 µM | > 100 |  | > 100 | > 100 | 
8 | [O-]c1c2c(nn1-c1ccc(Cl)cc1)c1ccccc1c[n+]2Cc1ccccc1 |  | > 100 |  | > 100 |  |  |  | > 100 |  |  |  | > 100 |  | > 100 |  | > 100 |  | > 100 | > 100 | 
9 | COCCn1cc(-c2csc(-c3c[nH]c4ccc(Br)cc34)n2)c2cccnc21 | 13.9 | > 100 | 3.84 µM | > 100 | 3.14 µM | > 100 | 5.35 | > 100 | 3.02 | 15.9 | 5.14 | > 100 |  |  | 6.89 µM | > 100 | 3.66 | 57.6 | 64.2 | 8.69
10 | Cn1cnc([N+](=O)[O-])c1Sc1nccc(=O)[nH]1 |  | > 100 |  | > 100 |  |  |  | > 100 |  | > 100 |  | > 100 |  | > 100 |  | > 100 |  | > 100 | > 100 | 
11 | CCOC1CC2OC(=O)C1C=C2C(=O)OC (stereo not drawn) |  | > 100 |  |  |  | > 100 |  |  |  | > 100 |  | 53.9 |  | > 100 |  | > 100 |  | 38.5 | 74.2 | 
12 | CSc1ccc(C(=O)/C=C/c2ccccc2Cl)cc1 | 32.3 | > 100 | 2.08 µM | 3.96 | 7.73 µM | 28.9 | 15.8 | 32.5 |  |  | 7.11 | 37.7 | 22.4 | 53.3 | 15.1 µM | 30.5 |  |  | 29.3 | 15.2
13 | CCOC(=O)C(C(O)c1ccc([N+](=O)[O-])cc1)P(=O)(OCC)OCC (stereo not drawn) |  |  |  | > 100 |  | > 100 |  | > 100 |  | > 100 |  | > 100 |  | > 100 |  | > 100 |  | > 100 |  | 
14 | CC(=O)O[C@H]1CC2C=CC3C(CCC31)O2 (stereo partly drawn) |  | > 100 |  |  |  | > 100 |  | > 100 |  |  |  |  |  | > 100 |  | > 100 |  | > 100 |  | 
15 | CCCCCCCC(=O)[O][Hg][CH2]C1COC([CH2][Hg][O]C(=O)CCCCCCC)CO1 (stereo not drawn) | 13.2 | 27.6 | 2.29 µM | 8.26 | 9.54 µM | 26.2 | 19.8 | 40.1 |  |  | 3.84 | > 100 | 18.2 | 36.9 | 20.3 µM | 47.2 | 3.24 | 11.6 |  | 
16 | C=C(CCCO)[C@@H]1CC[C@@](C)(O)[C@H]1C |  | > 100 |  | > 100 |  | > 100 |  | > 100 |  |  |  | > 100 |  |  |  | > 100 |  | > 100 | > 100 | 
17 | CCCCCC[C@H](C)NC(=O)c1ccc(Nc2nc3ccccc3c3occc23)cc1 | 5.11 | > 100 | 2.14 µM | 6.43 | 8.42 µM | 33 | 2.92 | 8 | 2.74 | 7.54 | 4.03 | > 100 | 6.39 | > 100 | 4.35 µM | > 100 |  |  | 6.17 | 2.64
18 | CCN(CC)CCn1c2ccccc2c(=O)c2c(OC)ccc(OC)c21 |  |  |  | > 100 |  | > 100 |  | > 100 |  | > 100 |  | > 100 |  | > 100 |  | > 100 |  | > 100 | > 100 | 
19 | CC1C2CC=CC(=O)[C@@]2(C)CCC12OCCO2 (stereo partly drawn) |  | > 100 |  | > 100 |  |  |  | > 100 |  | > 100 |  |  |  | > 100 |  | > 100 |  | > 100 | > 100 | 
